Where only a bound is given, the exact number is not on record here.

The target of the experiment is T1, FGFR3 enzyme (Millipore) (Homo sapiens, UniProt P22607).
T1 construct: purchased Millipore
Briefly: FGFR Enzymatic Assay (peptide phosphorylation, FRET). In kind it is biochemical. The note with it: pre-incubated for 4 hours; ATP 140 μM, peptide 500 nM. The protocol:
The inhibitor potency of the exemplified compounds was measured in an enzyme assay that measures peptide phosphorylation using FRET measurements to detect product formation. Inhibitors were serially diluted in DMSO and a volume of 0.5 μL was transferred to the wells of a 384-well plate. For FGFR3, a 10 μL volume of FGFR3 enzyme (Millipore) diluted in assay buffer (50 mM HEPES, 10 mM MgCl2, 1 mM EGTA, 0.01% Tween-20, 5 mM DTT, pH 7.5) was added to the plate and pre-incubated for a time between 5-10 minutes and up to 4 hours. Appropriate controls (enzyme blank and enzyme with no inhibitor) were included on the plate. The assay was initiated by the addition of a 10 μL solution containing biotinylated EQEDEPEGDYFEWLE peptide substrate (SEQ ID NO: 1) and ATP (final concentrations of 500 nM and 140 μM respectively) in assay buffer to the wells. The plate was incubated at 25° C. for 1 hr. The reactions were ended with the addition of 10 μL/well of quench solution (50 mM Tris, 150 mM NaCl, 0.5 mg/mL BSA, pH 7.8; 30 mM EDTA with Perkin Elmer Lance Reagents at 3.75 nM Eu-antibody PY20 and 180 nM APC-Streptavidin). The plate was allowed to equilibrate for ˜1 hr before scanning the wells on a PheraStar plate reader (BMG Labtech).
GraphPad prism3 was used to analyze the data. The IC50 values were derived by fitting the data to the equation for a sigmoidal dose-response with a variable slope. Y=Bottom+(Top-Bottom)/(1+10^((Log IC50−X)*HillSlope)) where X is the logarithm of concentration and Y is the response.
Table 1 provides IC50 data for compounds of the invention assayed in the FGFR Enzymatic Assay after dilution in assay buffer, added to the plate and pre-incubated for 4 hours.

T1 sequence (P22607 23-806): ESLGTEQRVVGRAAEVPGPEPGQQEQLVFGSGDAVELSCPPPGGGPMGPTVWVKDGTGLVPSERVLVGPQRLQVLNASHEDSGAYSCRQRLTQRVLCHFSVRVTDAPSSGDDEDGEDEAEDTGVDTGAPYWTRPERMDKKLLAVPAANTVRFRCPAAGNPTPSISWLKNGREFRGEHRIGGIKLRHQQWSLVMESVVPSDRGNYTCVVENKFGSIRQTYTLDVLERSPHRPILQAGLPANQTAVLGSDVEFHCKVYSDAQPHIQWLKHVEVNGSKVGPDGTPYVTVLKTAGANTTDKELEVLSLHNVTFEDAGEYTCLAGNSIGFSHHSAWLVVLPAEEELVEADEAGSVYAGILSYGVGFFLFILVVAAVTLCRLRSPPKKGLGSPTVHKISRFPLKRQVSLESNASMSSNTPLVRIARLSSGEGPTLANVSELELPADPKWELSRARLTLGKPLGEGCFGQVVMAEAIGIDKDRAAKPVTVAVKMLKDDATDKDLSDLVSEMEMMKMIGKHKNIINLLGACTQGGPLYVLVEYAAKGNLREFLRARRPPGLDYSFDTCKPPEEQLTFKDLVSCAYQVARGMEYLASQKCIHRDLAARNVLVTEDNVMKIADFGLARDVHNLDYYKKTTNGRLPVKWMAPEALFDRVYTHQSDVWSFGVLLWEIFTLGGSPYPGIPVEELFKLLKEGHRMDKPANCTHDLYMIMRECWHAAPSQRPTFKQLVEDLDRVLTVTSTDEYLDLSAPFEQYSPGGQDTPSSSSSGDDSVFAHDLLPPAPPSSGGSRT

What is called IC50 is the midpoint of a concentration-inhibition curve. Low values mean higher potency, high ones lower potency. `COc1cc2[nH]nc(-c3cnn(C)c3)c2cc1C(=O)Nc1c(C)cc(NS(C)(=O)=O)cc1C` [Example 27, N-(2,6-Dimethyl-4-(methylsulfonamido)phenyl)-6-methoxy-3-(1-methyl-1H-pyrazol-4-yl)-1H-indazole-5-carboxamide]: the IC50 was 10 to 30 nM.

`COc1cc2[nH]nc(-c3ccc(N4CCN(C)CC4)nc3)c2cc1C(=O)Nc1c(C)cccc1C` [Example 26, N-(2,6-Dimethylphenyl)-6-methoxy-3-(6-(4-methylpiperazin-1-yl)pyridin-3-yl)-1H-indazole-5-carboxamide] had a concentration for half-maximal inhibition (IC50) of less than 10 nM.

For `COc1cc2[nH]nc(-c3cnn(C4CCC4)c3)c2cc1C(=O)Nc1c(C)cccc1C` [Example 43, 3-(1-Cyclobutyl-1H-pyrazol-4-yl)-N-(2,6-dimethylphenyl)-6-methoxy-1H-indazole-5-carboxamide], the IC50 was less than 10 nM.

As to `COc1cc2[nH]nc(-c3cnn(C)c3)c2cc1C(=O)Nc1c(C)cc(C#N)cc1C` [Example 11, N-(4-Cyno-2,6-dimethylphenyl)-6-methoxy-3-(1-methyl-1H-pyrazol-4-yl)-1H-indazole-5-carboxamide], the IC50 lay within 10 to 30 nM.

Molecule `COc1cc2[nH]nc(-c3cnn(CCO)c3)c2cc1C(=O)Nc1c(C)cccc1C` [Example 38, N-(2,6-Dimethylphenyl)-3-(1-(2-hydroxyethyl)-1H-pyrazol-4-yl)-6-methoxy-1H-indazole-5-carboxamide] registered a half-inhibitory concentration (IC50) of 10 to 30 nM.

`COc1cc2[nH]nc(-c3cnn(C4CCOC4)c3)c2cc1C(=O)Nc1c(C)cccc1C` (stereo not drawn) [Example 36, N-(2,6-Dimethylphenyl)-6-methoxy-3-(1-(tetrahydrofuran-3-yl)-1H-pyrazol-4-yl)-1H-indazole-5-carboxamide]: the half-inhibitory concentration (IC50) is less than 10 nM.

Consider `COc1cc2[nH]nc(-c3cnn(Cc4ccccn4)c3)c2cc1C(=O)Nc1c(C)cccc1C` [Example 37, N-(2,6-Dimethylphenyl)-6-methoxy-3-(1-(pyridin-2-ylmethyl)-1H-pyrazol-4-yl)-1H-indazole-5-carboxamide], for which the IC50 is less than 10 nM.

As for `Cc1cccc(C)c1NC(=O)c1cc2c(-c3cnn(C)c3)n[nH]c2cc1Cl` [Example 13, 6-Chloro-N-(2,6-dimethylphenyl)-3-(1-methyl-1H-pyrazol-4-yl)-1H-indazole-5-carboxamide], the concentration for half-maximal inhibition (IC50) lay within 30 to 200 nM.

Take `COc1cc(C)c(NC(=O)c2cc3c(-c4cnn(C)c4)n[nH]c3cc2OC)c(C)c1` [Example 10, 6-Methoxy-N-(4-methoxy-2,6-dimethylphenyl)-3-(1-methyl-1H-pyrazol-4-yl)-1H-indazole-5-carboxamide]: the concentration for half-maximal inhibition (IC50) is 30 to 200 nM.

The molecule `CCc1cccc(C)c1NC(=O)c1cc2c(-c3cnn(C)c3)n[nH]c2cc1OC` [Example 6, N-(2-Ethyl-6-methylphenyl)-6-methoxy-3-(1-methyl-1H-pyrazol-4-yl)-1H-indazole-5-carboxamide] gave a half-inhibitory concentration (IC50) of less than 10 nM.

`COc1cc2[nH]nc(-c3cnn(C)c3)c2cc1C(=O)Nc1c(C)cccc1C` [Example 1, N-(2,6-Dimethylphenyl)-6-methoxy-3-(1-methyl-1H-pyrazol-4-yl)-1H-indazole-5-carboxamide]: the IC50 is less than 10 nM.

`COc1cc2[nH]nc(-c3cnn(C4CN(C(C)=O)C4)c3)c2cc1C(=O)Nc1c(C)cccc1C` [Example 33, 3-(1-(1-Acetylazetidin-3-yl)-1H-pyrazol-4-yl)-N-(2,6-dimethylphenyl)-6-methoxy-1H-indazole-5-carboxamide] yielded a half-maximal inhibitory concentration (IC50) of less than 10 nM.

In turn, `CCCn1cc(-c2n[nH]c3cc(OC)c(C(=O)Nc4c(C)cccc4C)cc23)cn1` [Example 45, N-(2,6-Dimethylphenyl)-6-methoxy-3-(1-propyl-1H-pyrazol-4-yl)-1H-indazole-5-carboxamide] displayed an IC50 of less than 10 nM.

As for `COc1cc2[nH]nc(-c3cnn(C4CN(C(=O)N(C)C)C4)c3)c2cc1C(=O)Nc1c(C)cccc1C` [Example 22, 3-(1-(1-(Dimethylcarbamoyl)azetidin-3-yl)-1H-pyrazol-4-yl)-N-(2,6-dimethylphenyl)-6-methoxy-1H-indazole-5-carboxamide], the concentration for half-maximal inhibition (IC50) was less than 10 nM.

The molecule `COc1cc2[nH]nc(-c3cnn(C)c3)c2cc1C(=O)Nc1c(C)cc(F)cc1C` [Example 5, N-(4-Fluoro-2,6-dimethylphenyl)-6-methoxy-3-(1-methyl-1H-pyrazol-4-yl)-1H-indazole-5-carboxamide] showed a half-maximal inhibitory concentration (IC50) of less than 10 nM.

`COc1cc2[nH]nc(-c3cnn(C)c3)c2cc1C(=O)Nc1c(C)cccc1C(F)(F)F` [Example 4, 6-Methoxy-3-(1-methyl-1H-pyrazol-4-yl)-N-(2-methyl-6-(trifluoromethyl)phenyl)-1H-indazole-5-carboxamide] showed an IC50 of less than 10 nM.

The molecule `CCNC(=O)Cn1cc(-c2n[nH]c3cc(OC)c(C(=O)Nc4c(C)cccc4C)cc23)cn1` [Example 19, N-(2,6-Dimethylphenyl)-3-(1-(2-(ethylamino)-2-oxoethyl)-1H-pyrazol-4-yl)-6-methoxy-1H-indazole-5-carboxamide] displayed an IC50 of 10 to 30 nM.

`Cc1cccc(F)c1NC(=O)c1cc2c(-c3cnn(C)c3)n[nH]c2cc1Cl` [Example 15, 6-Chloro-N-(2-fluoro-6-methylphenyl)-3-(1-methyl-1H-pyrazol-4-yl)-1H-indazole-5-carboxamide] had an IC50 of no less than 200 nM.

Take `CCc1cccc(CC)c1NC(=O)c1cc2c(-c3cnn(C)c3)n[nH]c2cc1OC` [Example 7, N-(2,6-Diethylphenyl)-6-methoxy-3-(1-methyl-1H-pyrazol-4-yl)-1H-indazole-5-carboxamide]: the half-inhibitory concentration (IC50) was less than 10 nM.

On to `COc1cc2[nH]nc(-c3cnn(C4CC4)c3)c2cc1C(=O)Nc1c(F)cccc1Cl` [Example 18, N-(2-Chloro-6-fluorophenyl)-3-(1-cyclopropyl-1H-pyrazol-4-yl)-6-methoxy-1H-indazole-5-carboxamide], for which the IC50 is 10 to 30 nM.

`CCNC(=O)N1CC(n2cc(-c3n[nH]c4cc(OC)c(C(=O)Nc5c(C)cccc5C)cc34)cn2)C1` [Example 30, N-(2,6-Dimethylphenyl)-3-(1-(1-(ethylcarbamoyl)azetidin-3-yl)-1H-pyrazol-4-yl)-6-methoxy-1H-indazole-5-carboxamide] displayed an IC50 of less than 10 nM.

Molecule `COc1cc2[nH]nc(-c3cnn(C4CN(S(C)(=O)=O)C4)c3)c2cc1C(=O)Nc1c(C)cccc1C` [Example 32, N-(2,6-Dimethylphenyl)-6-methoxy-3-(1-(1-(methylsulfonyl)azetidin-3-yl)-1H-pyrazol-4-yl)-1H-indazole-5-carboxamide] came in with an IC50 of less than 10 nM.

In the case of `COC(=O)N1CCC(n2cc(-c3n[nH]c4cc(OC)c(C(=O)Nc5c(C)cccc5C)cc34)cn2)CC1` [Example 24, Methyl 4-(4-(5-((2,6-dimethylphenyl)carbamoyl)-6-methoxy-1H-indazol-3-yl)-1H-pyrazol-1-yl)piperidine-1-carboxylate], the 50% inhibitory concentration (IC50) was less than 10 nM.

For `COc1cc2[nH]nc(-c3cnn(C4CCC4)c3)c2cc1C(=O)Nc1c(F)cccc1Cl` [Example 17, N-(2-Chloro-6-fluorophenyl)-3-(1-cyclobutyl-1H-pyrazol-4-yl)-6-methoxy-1H-indazole-5-carboxamide], the IC50 is less than 10 nM.

`COc1cc2[nH]nc(-c3cnn(C)c3)c2cc1C(=O)Nc1c(C)cc(NC(C)=O)cc1C` [Example 28, N-(4-Acetamido-2,6-dimethylphenyl)-6-methoxy-3-(1-methyl-1H-pyrazol-4-yl)-1H-indazole-5-carboxamide] registered an IC50 of 30 to 200 nM.

Molecule `COc1cc2[nH]nc(-c3cnn(C)c3)c2cc1C(=O)Nc1c(C)cccc1F` [Example 8, N-(2-Fluoro-6-methylphenyl)-6-methoxy-3-(1-methyl-1H-pyrazol-4-yl)-1H-indazole-5-carboxamide] displayed an IC50 of less than 10 nM.

As for `COc1cc2[nH]nc(-c3cnn(-c4ccccn4)c3)c2cc1C(=O)Nc1c(C)cccc1C` [Example 42, N-(2,6-Dimethylphenyl)-6-methoxy-3-(1-(pyridin-2-yl)-1H-pyrazol-4-yl)-1H-indazole-5-carboxamide], the IC50 lay in the range of 30 to 200 nM.

Regarding `COc1cc2[nH]nc(-c3ccc(N4CCN(C(C)=O)CC4)cc3)c2cc1C(=O)Nc1c(C)cccc1C` [Example 20, 3-(4-(4-Acetylpiperazin-1-yl)phenyl)-N-(2,6-dimethylphenyl)-6-methoxy-1H-indazole-5-carboxamide], the IC50 was less than 10 nM.

The molecule `Cc1cc2[nH]nc(-c3cnn(C)c3)c2cc1C(=O)Nc1c(C)cccc1F` [Example 14, N-(2-Fluoro-6-methylphenyl)-6-methyl-3-(1-methyl-1H-pyrazol-4-yl)-1H-indazole-5-carboxamide] displayed an IC50 of no less than 200 nM.

In turn, `COc1cc2[nH]nc(-c3cnn(C4CCOCC4)c3)c2cc1C(=O)Nc1c(C)cccc1C` [Example 35, N-(2,6-Dimethylphenyl)-6-methoxy-3-(1-(tetrahydro-2H-pyran-4-yl)-1H-pyrazol-4-yl)-1H-indazole-5-carboxamide] came in with a concentration for half-maximal inhibition (IC50) of less than 10 nM.

For the origin of these results see patent US12122767B2, “Bicyclic heterocycles as FGFR inhibitors” (Incyte Corporation, priority 2019, dated 2024).
